Active and inactive are the calls of the source. No cut-off for these calls is given here. Positions of bridges follow the written chain, without caps; N, C: chain ends. Non-standard residues stand in square brackets, D forms with d. Residues, ends and D or L forms follow the SMILES beside them. Arg(Nω-βLac) = N=C(NCCC[C@H](N)C(=O)O)N[C@@H]1O[C@H](CO)[C@@H](O[C@@H]2O[C@H](CO)[C@H](O)[C@H](O)[C@H]2O)[C@H](O)[C@H]1O; S5 = C=CCCC[C@](C)(N)C(=O)O
Legend:
Cell membrane [1] = assay: Induction of cell membrane damage in methicillin-resistant Staphylococcus aureus ATCC 43300 assessed as increase in green fluorescence at MIC measured after 1 hr incubation by SYTO9 confocal microscopy; assay type: subcellular
Klebsiella pneumoniae [2] = assay: In vivo antibacterial activity against Klebsiella pneumoniae ATCC 13883 induced bacterial pneumonia mouse model assessed as reduction in bacterial infection induced IL-6 mRNA expression in lung tissue at 4 mg/kg, injected into trachea after 24 hrs of infection measured after 3 to 7 days; assay type: functional, organism-based
Klebsiella pneumoniae [3] = assay: In vivo antibacterial activity against Klebsiella pneumoniae ATCC 13883 induced bacterial pneumonia mouse model assessed as reduction in bacterial load in lungs at 4 mg/kg, injected into trachea after 24 hrs of infection measured after 3 to 7 days; assay type: functional, organism-based
Klebsiella pneumoniae [4] = assay: In vivo antibacterial activity against Klebsiella pneumoniae ATCC 13883 induced bacterial pneumonia mouse model assessed as increase in survival of mouse at 1 mg/kg, injected into trachea after 24 hrs of infection measured after 3 to 7 days; assay type: functional, organism-based
Klebsiella pneumoniae [5] = assay: In vivo antibacterial activity against Klebsiella pneumoniae ATCC 13883 induced bacterial pneumonia mouse model assessed as increase in survival of mouse at 4 mg/kg, injected into trachea after 24 hrs of infection measured after 3 to 7 days; assay type: functional, organism-based
Staphylococcus aureus [6] = assay: In vivo antibacterial activity against methicillin-resistant Staphylococcus aureus ATCC 43300 infected locally in full thickness skin wound mouse model assessed as reduction in bacterial load in skin wound at 4 mg/kg treated with absorbable gelatin sponge measured after 7 days; assay type: functional, organism-based; conditions: time 7.0 day
Klebsiella pneumoniae [7] = assay: In vivo antibacterial activity against Klebsiella pneumoniae ATCC 13883 induced bacterial pneumonia mouse model assessed as reduction in bacterial load in lungs at 1 mg/kg, injected into trachea after 24 hrs of infection measured after 3 to 7 days; assay type: functional, organism-based
Klebsiella pneumoniae [8] = assay: In vivo antibacterial activity against Klebsiella pneumoniae ATCC 13883 induced bacterial pneumonia mouse model assessed as reduction in bacterial infection induced IL-6 level in lung tissue at 4 mg/kg, injected into trachea after 24 hrs of infection measured after 3 to 7 days; assay type: functional, organism-based
Staphylococcus aureus [9] = assay: Antibiofilm activity in methicillin-resistant Staphylococcus aureus ATCC 43300 assessed as prevention of biofilm formation at 0.5 to 4 times of MIC measured after 24 hrs by crystal violet staining based assay; assay type: functional, organism-based
Staphylococcus aureus [10] = assay: In vivo antibacterial activity against methicillin-resistant Staphylococcus aureus ATCC 43300 infected locally in full thickness skin wound mouse model assessed as reduction in bacterial load in skin wound at 1 mg/kg treated with absorbable gelatin sponge measured after 7 days; assay type: functional, organism-based; conditions: time 7.0 day
Cell membrane [11] = assay: Binding affinity to Klebsiella pneumoniae ATCC 13883 cell membrane treated with FITC labelled peptides at MIC measured after 1.5 hr by CLSM imaging analysis; assay type: subcellular
Cell membrane [12] = assay: Induction of cell membrane damage in Klebsiella pneumoniae ATCC 13883 assessed as increase in red fluorescence at MIC measured after 1 hr incubation by PI based flow cytometry; assay type: subcellular
Staphylococcus aureus [13] = assay: In vivo antibacterial activity against methicillin-resistant Staphylococcus aureus ATCC 43300 infected locally in full thickness skin wound mouse model assessed as decrease in edema and ulcerative tissue in wound at 4 mg/kg treated with absorbable gelatin sponge measured after 7 days; assay type: functional, organism-based; conditions: time 7.0 day
Klebsiella pneumoniae [14] = assay: Antibiofilm activity in Klebsiella pneumoniae ATCC 13883 assessed as prevention of biofilm formation at 0.5 to 4 times of MIC measured after 24 hrs by crystal violet staining based assay; assay type: functional, organism-based

CC(=O)N[C@@H](CCCCN)C(=O)N[C@@H](CCCCN)C(=O)N[C@@H](CCCNC(=N)N)C(=O)N[C@H](C(=O)N[C@@H](CCCCN)C(=O)N[C@@H](CCCCN)C(=O)N[C@@H](CCCNC(=N)N)C(=O)N[C@@]1(C)CCC/C=C\CCC[C@@](C)(C(=O)N[C@@H](CCCCN)C(=O)N[C@@]2(C)CCC/C=C\CCC[C@@](C)(C(=O)N[C@@H](CC(C)C)C(=O)N[C@@H](CCCCN)C(=O)N[C@@H](CCCCN)C(=O)N3CCC[C@H]3C(=O)N[C@H](C(=O)N[C@@H](CCCNC(=N)N[C@@H]3O[C@H](CO)[C@@H](O[C@@H]4O[C@H](CO)[C@H](O)[C@H](O)[C@H]4O)[C@H](O)[C@H]3O)C(N)=O)C(C)C)NC(=O)[C@H](CCCNC(=N)N)NC(=O)[C@H](Cc3c[nH]c4ccccc34)NC(=O)[C@H](Cc3ccc(O)cc3)NC2=O)NC(=O)[C@H](CC(C)C)NC(=O)[C@H](CCCCN)NC(=O)[C@H](Cc2ccccc2)NC1=O)C(C)C (Ac-KKRVKKR[S5]FKL[S5]K[S5]YWR[S5]LKKPV[Arg(Nω-βLac)]-NH2; staple (Z) 8-12, 14-18)
Activity (Cell membrane [1]): Active | Activity (Klebsiella pneumoniae [2]): Active | Activity (Klebsiella pneumoniae [3]): Active; Compound Showed Superior Therapeutic Effect Than Slp-0 | Activity (Klebsiella pneumoniae [4]): Active | Activity (Klebsiella pneumoniae [5]): Active | Activity (Staphylococcus aureus [6]): Active | Activity (Klebsiella pneumoniae [7]): Active; Compound Showed Superior Therapeutic Effect Than Slp-0 | Activity (Klebsiella pneumoniae [8]): Active | Activity (Staphylococcus aureus [9]): Dose-dependent-effect | Activity (Staphylococcus aureus [10]): Active | Activity (Cell membrane [11]): Active; Compound Exhibited Brighter Red | Activity (Cell membrane [12]): Active | Activity (Staphylococcus aureus [13]): Active | Activity (Klebsiella pneumoniae [14]): Dose-dependent-effect

Source: ChEMBL document CHEMBL6153110, “Peptide Double-Stapling and Arginine N-Glycosylation Triggered the Development of Therapeutic Antimicrobial Peptides Capable of Killing Drug-Resistant Bacteria in Mice” (J Med Chem, 2025)
